According to patent US8278100B2, “Lasonolide compounds as reagents for inducing premature chromosome condensation and methods for treating disorders” (The United States of America, as Represented by the …, priority 2008, dated 2012):
Entries after “also recorded” stand apart in the source; their conditions may differ.

Assays:
[1] = tested on: actin network in MDA-MB-231 cells; experiment: Actin staining with phalloidin; format: cell-based, human
Description: Cells were fixed with 4% paraformaldehyde and permeabilized with PBS containing 0.1% Triton X-100. After blocking with 1% bovine serum albumin for 30 min. Cells were incubated with Alexa Fluor 488-conjugated phalloidin (Molecular Probes) to stain actin stress fibers.

MCF-7 cells [2] = experiment: BrdU incorporation; format: cell-based
Description: A number of cells (5×10^5) were pulse-labeled with 50 μmol/L BrdU (Calbiochem, La Jolla, Calif.) for 30 minutes. Cells were collected, fixed in 70% ethanol at 4° C., washed with PBS, resuspended in 3 mL 2 mol/L HCl/0.5% Triton X-100, and left at room temperature for 30 minutes. Cells were spun down after adding 6 mL 0.1 M sodium borate (pH 8.5). Pellets were washed with PBS/0.5% Tween-20 twice, then resuspended in 15 μL FITC-conjuncted anti-BrdU antibody (Becton Dickinson, Franklin Lakes, N.J.). After incubation with the anti-BrdU antibody at room temperature for 60 minutes, pellets were washed once with PBS, and resuspended in 500 μL of PI solution (50 μg/mL PI and 50 μg/mL RNase). Analyses were done with a FACScan flow cytometer (Becton Dickinson, San Jose, Calif.) (FIG. 2B).

HT 29 cells = experiment: Cell cycle analysis; format: cell-based; settings: 24 h treatment
Description: (§1) After treatment, cells were collected, washed twice with ice-cold PBS, and fixed overnight with 70% precooled (−20° C.) ethanol. Fixed cells were resuspended in PBS containing 0.02 mg/mL RNase A (Roche, USA) and incubated at 37° C. for 15 min. Next, the cells were stained with 0.01 mg/mL propidium iodide (Sigma) in the dark at room temperature for 10 min. The DNA content was analyzed by flow cytometry using a FACSCalibur (Becton Dickinson, Sunnyvale, Calif.) with Cellquest and Modfit LT3.0 software (Becton Dickinson) (FIGS. 1D & 2A).

HCT 116 cells = experiment: Cell cycle analysis; format: cell-based; settings: 24 h treatment
Description: as §1

MCF-7 cells [3] = experiment: Cell cycle analysis; format: cell-based; settings: 24 h treatment
Description: as §1

MDA-MB-231 cells [4] = experiment: Cell adhesion assay; format: cell-based, human
Description: The effect of Lasonolide A on the extracellular matrix-induced cell adhesion was determined as follows. Fibronectin or collagen was diluted in sterile water and applied to 96-well plates overnight at 4° C. Nonspecific binding sites were blocked with 1% bovine serum albumin for 1 h at room temperature. Breast cancer MDA-MB-231 cells were serum starved for 45 min, detached with 2 mmol/L EDTA in PBS, plated in triplicate onto wells in serum-free medium with or without Lasonolide A, and allowed to adhere for 1 h at 37° C. Nonadherent cells were washed away and adherent cells were fixed with 4% paraformaldehyde and stained with 0.1% crystal violet in 2% methanol. Following extensive washing with tap water, dye was extracted with 10% acetic acid and quantified by measuring absorbance at 595 nm on a multiwell spectrophotometer (VersaMax, Molecular Devices). (FIGS. 6A, 6B, & 6D)

phosphorylated-H3 Ser28 = experiment: Western blot; format: cell-based
Description: (§2) Protein levels were measured by Western blotting with corresponding specific primary antibodies, including those against Cdc2 p34(Santa Cruz), cyclinB1 (Santa Cruz) (FIG. 4A), Anti-Acetylated-H3K9 (Upstate), phosphorylated-H3 Ser28 (Cell signaling). GAPDH was as the loading control.

cyclinB1 = experiment: Western blot; format: cell-based
Description: as §2

Acetylated-H3K9 = experiment: Western blot; format: cell-based
Description: as §2

chromatin condensation = experiment: DNase I sensitivity assay; format: cell-based; settings: 1 h
Description: Cells were treated with different concentrations of Lasonolide A for 1 h and were collected with centrifuging. The centrifuged cells were washed with PBS and fixed with 1.5% PFA for 15 min on ice. After washing by PBS, fresh PBS was added (300 μL) to re-suspend the pellet, then 700 μL 70% EtOH was gently added and the mixture was maintained at −20° C. overnight. The solution was washed by PBS once, then washed by 1× DNase I reaction buffer (500 μL), then incubated in 200 μL Reaction buffer with 4 Units DNase I (2 μL), 37° C., 10 min. The solution was washed by PBS and incubated in 100 μL Polymerase reaction buffer including 16 μM dATP, 16 μM dCTP, 16 μM dGTP, 16 μM dUTP-FITC, 100 unit/mL Polymerase I, 37° C. 60 min. FL1 channel of Green fluorescence signal were measured with flow cytometer (FIG. 1C).

human lymphocytes = experiment: PCC induction and PI staining; format: cell-based; settings: 200 nM Lasonolide A, without additional reagents
MDA-MB-231 cells [5] = experiment: Transwell migration assay; format: cell-based, human; settings: 6 h
Description: The effect of Lasonolide A on the migration of breast cancer MDA-MB-231 cells was determined in a transwell Boyden Chamber (Costar, Mass.) using a polycarbonate filter with a pore size of […], which was coated with 0.2% gelatin, balancing with gelatin at 37° C. for 1 h, then removal of the gelatin and covering with DMEM without serum overnight at 37° C. In the standard assay, after removing medium, 0.1 mL of cell suspension (1×10^5 cells/ml, in serum-free medium) with Lasonolide A or 0.1% DMSO (v/v) was added to the upper compartment of the chamber. The lower compartment contained 0.6 mL of DMEM medium supplemented with 20% serum. After incubation for 6 h at 37° C., the filter was removed and fixed with ethanol. Cells remaining on the upper surface of the filter (non-migrated) were scraped gently. Then, migrated cells on the lower surface of the filter were stained with 0.1% crystal violet and taken photographs under microscope (FIG. 6C).

In the case of `C=C(CCC(C)C)COC(=O)[C@H](O)C/C=C\C[C@@H]1O[C@@H]2/C=C/C/C=C/C(C)=C\[C@H]3O[C@@H](C/C=C/C=C/C(=O)O[C@H](C2)[C@@]1(C)CO)C[C@H](O)[C@H]3C` [Lasonolide A], the “actin network / cytoskeleton” value [1] is reported as “reorganized the cytoskeleton system; also recorded: reorganized the actin network”, the “DNA replication (BrdU incorporation)” value (MCF-7 cells [2]) is reported as “decelerated DNA replication” and the cell cycle arrest (HT 29 cells) is reported as “G2/M phase arrest”. For the same molecule, the cell cycle arrest (HCT 116 cells) was “G2/M phase arrest”, the cell cycle arrest (MCF-7 cells [3]) was “G2/M phase arrest” and the “attachment of cells to collagen I” value (MDA-MB-231 cells [4]; collagen I) was “blocked; also recorded: reduced”. For the same molecule, the “attachment of cells to fibronectin” value (MDA-MB-231 cells [4]; fibronectin) was “blocked; also recorded: reduced”, the “cell adhesion / detachment” value (MDA-MB-231 cells [4]; low dose, short-time treatment, nanomolar concentration) was “inhibited adhesion; also recorded: detached cells into suspension” and the “phosphorylation of H3 (Ser28)” value (phosphorylated-H3 Ser28) was “increased the phosphorylation of H3 (Ser28)”. For the same molecule, the “protein level of cyclinB1” value (cyclinB1) was “decreased the protein level of cyclinB1”, the “acetylation of histone H3” value (Acetylated-H3K9) was “decreased the acetylation of histone H3 Lysine 9; also recorded: decreased the acetylation of H3 (Arg9)” and the “H3 acetylation induced by the HDAC inhibitor SAHA” value (Acetylated-H3K9; with SAHA) was “attenuated the enhancement of H3 acetylation”. For the same molecule, the “DNase I sensitivity, fluorescence shift” value (chromatin condensation; 100 nM) was “evidence of an effect”, the “DNase I sensitivity, fluorescence shift” value (chromatin condensation; 200 nM) was “a greater change, affecting signal amplitude” and the “lymphocytes going to PCC” value (human lymphocytes) was 35.5%. For the same molecule, the cell migration (MDA-MB-231 cells [5]) was “inhibited migration”.
